Where two headings read alike, the source gives them in different places.
How the values were obtained:
MYB = assay: HiBiT protein abundance assay, MYB (K562 HiBiT knock-in); assay type: cell-based, human; settings: HiBiT knock-in K562 cells, 24 hours, top dose 10 μM
Outline: (§1)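 K562 HiBiT knock-in, 24 h, 37 °C, top 10 μM final, 3-fold ×10, DMSO ≤0.25%. Lytic HiBiT luminescence; PC = parental K562, NC = DMSO; 4PL IC50.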

HTT = assay: HiBiT protein abundance assay, HTT (K562 HiBiT knock-in); assay type: cell-based, human; settings: HiBiT knock-in K562 cells, 24 hours, top dose 10 μM
Outline: as §1

SMN2 mRNA = assay: RT-qPCR splicing assay, SMN2 mRNA; assay type: cell-based, human; settings: Homo sapiens, canonical junction qPCR panel, Table 4; read-out: SMN2 IC50 (decrease in CJ mRNA levels)
Outline: (§2)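 Both isoforms, CJ and AJ, read by qPCR from crude lysates of treated A673 or K562 cells; 24 h, 37 °C, maximum 10 uM. Normalization: housekeeper ΔCt, then DMSO ΔΔCt.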

HTT mRNA = assay: RT-qPCR splicing assay, HTT mRNA canonical (CJ) and alternative (AJ) junction; assay type: cell-based, human; settings: Homo sapiens; for AC50: HTT alternative junction mRNA, read-out: HTT AJ (increase in AJ mRNA, AC50)
Outline: as §2

K562 cells = assay: Cell Titer Glo 2.0 cell viability (toxicity) assay, K562; settings: 500 cells/well, 72 hours
Target C = assay: HiBiT protein abundance assay, Target C (K562 HiBiT knock-in); assay type: cell-based, human; settings: HiBiT knock-in K562 cells, 24 hours, top dose 10 μM
Outline: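 K562 HiBiT knock-in cells (10000/well) were treated 24 h at 37° C with a 10-point 3-fold dilution series (top 10 μM final, ≤0.25% DMSO). HiBiT luminescence was read after lytic LgBiT detection. Percent response used unmodified K562 and DMSO-treated knock-in controls, and IC50 came from a four-parameter fit at 50% of untreated.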

MYB mRNA = assay: RT-qPCR splicing assay, MYB mRNA canonical (CJ) and alternative (AJ) junction; assay type: cell-based, human; settings: Homo sapiens; for AC50: MYB alternative junction mRNA, read-out: MYB AJ (increase in AJ mRNA, AC50)
Outline: as §2

[1] = HTT canonical junction mRNA, RT-qPCR, read-out: HTT CJ (decrease in CJ mRNA levels, IC50)
[2] = canonical junction qPCR panel, Table 4, read-out: HTT IC50 (decrease in CJ mRNA levels)
[3] = MYB canonical junction mRNA, RT-qPCR, read-out: MYB CJ (decrease in CJ mRNA levels, IC50)
[4] = canonical junction qPCR panel, Table 4, read-out: MYB IC50 (decrease in CJ mRNA levels)

Row | SMILES | IC50 (MYB) [nM] | IC50 (HTT) [nM] | IC50 (SMN2 mRNA) [nM] | AC50 (HTT mRNA; RT-qPCR) [nM] | IC50 (HTT mRNA; [1]) [nM] | IC50 (HTT mRNA; [2]) [nM] | Effect of Exemplary Compounds on Cell Viability, K562 (K562 cells) | IC50 (Target C) [nM] | AC50 (MYB mRNA; RT-qPCR) [nM] | IC50 (MYB mRNA; [3]) [nM] | IC50 (MYB mRNA; [4]) [nM]
1 | Cc1cn2cc(-c3ccc4nc(N5CCC(NC(C)(C)C)C5)ccc4n3)nc(C)c2n1 (stereo not shown) [Compound 206] | 1000 to 10000 | 1000 to 10000 | 1000 to 10000 | 1000 to 10000 | 1000 to 10000 | 1000 to 10000 | C (C represents 1000-9999 nM) | 1000 to 10000 | 1000 to 10000 | 1000 to 10000 | 1000 to 10000
2 | Cn1cc2nc(-c3ccc4nc(N5CCC(NC(C)(C)C)C5)ccc4n3)c(F)cc2n1 (stereo not shown) [Compound 207] | 1000 to 10000 | 1000 to 10000 | 1000 to 10000 | 1000 to 10000 | 1000 to 10000 | 1000 to 10000 | C (C represents 1000-9999 nM) | 1000 to 10000 | 1000 to 10000 | 1000 to 10000 | 1000 to 10000
3 | Cc1nc(-c2ccc3nc(N4CCC(NC(C)(C)C)C4)ccc3n2)cc2cn(C)nc12 (stereo not shown) [Compound 208] | > 10000 | 1000 to 10000 | 1000 to 10000 | > 10000 | > 10000 | > 10000 | D (D represents greater than 10 μM in K562 cells) | > 10000 | 1000 to 10000 | > 10000 | > 10000
4 | Cc1nc2cc(O)c(-c3ccc4nc(N5CC[C@H](NC(C)(C)C)C5)ccc4n3)cc2o1 [Compound 209] | 1000 to 10000 | < 100 | < 100 | < 100 | < 100 | < 100 | C (C represents 1000-9999 nM) | < 100 | < 100 | < 100 | < 100
5 | Cc1nc2cc(O)c(-c3ccc4nc(N5CC[C@@H](NC(C)(C)C)C5)ccc4n3)cc2o1 [Compound 210] | < 100 | < 100 | < 100 | 1000 to 10000 | 100 to 1000 | 100 to 1000 | A (A represents <100 nM) | < 100 | 1000 to 10000 | 1000 to 10000 | 1000 to 10000
6 | Cc1nc2cc(O)c(-c3ccc4nc(N5CC[C@H](NC6CC6)C5)ccc4n3)cc2o1 [Compound 211] | < 100 | < 100 | < 100 | < 100 | < 100 | < 100 | B (B represents 100-1000 nM) | < 100 | < 100 | < 100 | < 100
7 | Cc1nc2cc(O)c(-c3ccc4nc(N5CC[C@@H](NC6CC6)C5)ccc4n3)cc2o1 [Compound 212] | 100 to 1000 | < 100 | < 100 | < 100 | < 100 | < 100 | B (B represents 100-1000 nM) | 100 to 1000 | 100 to 1000 | 100 to 1000 | 100 to 1000
8 | Cc1nc2c(C)c(O)c(-c3ccc4nc(N5CC[C@@H](NC(C)(C)C)C5)ccc4n3)cc2o1 [Compound 215] | < 100 | < 100 | < 100 | < 100 | < 100 | < 100 | A (A represents <100 nM) | < 100 | < 100 | < 100 | < 100
9 | Cn1cc2cc(-c3cc4ccc(N5CCC(NC(C)(C)C)C5)nc4cn3)c(O)cc2n1 (stereo not shown) [Compound 218] | 1000 to 10000 | > 10000 | 100 to 1000 | > 10000 | > 10000 | > 10000 | C (C represents 1000-9999 nM) | > 10000 | 1000 to 10000 | > 10000 | > 10000
10 | Cn1cc2cc(-c3ccc4nc(N5CC[C@@H](NC6(C)CC6)C5)ccc4n3)c(O)cc2n1 [Compound 220] | < 100 | < 100 | < 100 | < 100 | < 100 | < 100 | A (A represents <100 nM) | < 100 | < 100 | < 100 | < 100
11 | Cn1cc2cc(-c3ccc4nc(N5CC[C@H](NC6(C)CC6)C5)ccc4n3)c(O)cc2n1 [Compound 221] | < 100 | < 100 | < 100 | < 100 | < 100 | < 100 | B (B represents 100-1000 nM) | < 100 | < 100 | < 100 | < 100
12 | Cn1cc2cc(-c3ccc4nc(N5CC[C@H](NC6(C)CC6)C5)ccc4n3)c(O)c(F)c2n1 [Compound 222] | < 100 | < 100 | < 100 | < 100 | < 100 | < 100 | B (B represents 100-1000 nM) | < 100 | < 100 | < 100 | < 100
13 | Cn1cc2cc(-c3ccc4nc(N5CC[C@@H](NC6(C)CC6)C5)ccc4n3)c(O)c(F)c2n1 [Compound 223] | < 100 | < 100 | < 100 | < 100 | < 100 | < 100 | A (A represents <100 nM) | < 100 | < 100 | < 100 | < 100
14 | Cc1c(O)c(-c2ccc3nc(N4CCC(NC5(C)CC5)C4)ccc3n2)cc2cn(C)nc12 (stereo not shown) [Compound 224] | < 100 | < 100 | < 100 | < 100 | < 100 | < 100 | B (B represents 100-1000 nM) | < 100 | < 100 | < 100 | < 100
